Where two headings read alike, the source gives them in different places.
Assays:
[1] = X-ray powder diffraction (XRPD) of salt screen and scale-up products; type: physicochemical; details: salt screen
Text: The Rigaku Smart-Lab X-ray diffraction system was configured for reflection Bragg-Brentano geometry using a line source X-ray beam. The x-ray source is a Cu Long Fine Focus tube that was operated at 40 kV and 44 ma. That source provides an incident beam profile at the sample that changes from a narrow line at high angles to a broad rectangle at low angles. Beam conditioning slits are used on the line X-ray source to ensure that the maximum beam size is less than 10 mm both along the line and normal to the line. The Bragg-Brentano geometry is a para-focusing geometry controlled by passive divergence and receiving slits with the sample itself acting as the focusing component for the optics. The inherent resolution of Bragg-Brentano geometry is governed in part by the diffractometer radius and the width of the receiving slit used. Typically, the Rigaku Smart-Lab is operated to give peak widths of 0.1° 2θ or less. The axial divergence of the X-ray beam is controlled by 5.0-degree Soller slits in both the incident and diffracted beam paths.
Powder samples were prepared in a low background Si holder using light manual pressure to keep the sample surfaces flat and level with the reference surface of the sample holder. Each sample was analyzed from 2 to 40° 2θ using a continuous scan of 6° 2θ per minute with an effective step size of 0.02° 2θ.

absence seizures = details: childhood absence epilepsy, cited from earlier work
[2] = at 16 weeks, as assessed by video-EEG recordings

CC(=O)O [Acetate]
XRPD Pattern ([1]; E (evaporation), EtOH): API A (PO)
XRPD Pattern ([1]; Grind, ACN): API A

O=CO [Formate]
XRPD Pattern ([1]; E (evaporation), EtOH): API A (PO)
XRPD Pattern ([1]; Grind, ACN): API A

N[C@@H](CCC(=O)O)C(=O)O [Glutamate]
XRPD Pattern ([1]; Grind, ACN/water (9:1)): API A + acid
XRPD Pattern ([1]; SL, ACN, 50° C.): API A + acid

O=S(=O)(O)CCO [Isethionate]
XRPD Pattern ([1]; Grind, ACN): API A + NC

CC(C)C(=O)O [Isobutyrate]
XRPD Pattern ([1]; E, MeOH): API A
XRPD Pattern ([1]; Grind, ACN): API A

O=C(O)CCC(=O)C(=O)O [Ketoglutarate]
XRPD Pattern ([1]; E, MeOH/ACN (1:1)): NC + pks
XRPD Pattern ([1]; Grind, ACN): API A + NC

Nc1nnc(-c2cccc(Cl)c2Cl)c(N)n1 [Lamotrigine]
patients in whom the seizures were completely controlled (absence seizures; at 12 months): 21%
patients in whom the seizures were completely controlled (absence seizures; [2]): 29%

CCC1(C)CC(=O)NC1=O (stereo not shown) [ethosuximide]
patients in whom the seizures were completely controlled (absence seizures; at 12 months): 45%
patients in whom the seizures were completely controlled (absence seizures; [2]): 53%

Alginate
XRPD Pattern ([1]; Grind, IPA): API A

Ascorbate
XRPD Pattern ([1]; E (evaporation), EtOH): API A (PO)
XRPD Pattern ([1]; Grind, ACN): API A + acid

Benzoate
XRPD Pattern ([1]; E (evaporation), EtOH): API A + NC
XRPD Pattern ([1]; Grind, ACN): API A + NC
XRPD Pattern ([1]; SL, IPE, RT): API A

Camphorate
XRPD Pattern ([1]; E (evaporation), EtOH): API A (PO)
XRPD Pattern ([1]; Grind, ACN): API A + acid

Caprate
XRPD Pattern ([1]; E (evaporation), EtOH): API A (PO)
XRPD Pattern ([1]; Grind, ACN): API A + pks

Caprylate
XRPD Pattern ([1]; E (evaporation), EtOH): API A (PO)
XRPD Pattern ([1]; Grind, ACN): API A

Citrate
XRPD Pattern ([1]; Grind, EtOAc): API A + acid + NC

Gentisate
XRPD Pattern ([1]; Grind, BuOAc): API A + NC

Gluconate
XRPD Pattern ([1]; E, MeOH/toluene (1:1), RT): API A
XRPD Pattern ([1]; Grind, ACN): API A
XRPD Pattern ([1]; LY, dioxane/water): API A + NC

Glucuronate
XRPD Pattern ([1]; Grind, acetone): API A + pks
XRPD Pattern ([1]; LY, dioxane/water): API A + NC

Hippurate
XRPD Pattern ([1]; E (evaporation), EtOH): API A + NC
XRPD Pattern ([1]; Grind, IPA): API A + acid

Laurate
XRPD Pattern ([1]; E, MeOH): API A + acid + pks
XRPD Pattern ([1]; Grind, ACN): API A + acid + pks

Malate
XRPD Pattern ([1]; Grind, IPA): API A + NC

Oleate
XRPD Pattern ([1]; E, MeOH): API A (PO)
XRPD Pattern ([1]; Grind, ACN): API A + NC

Palmitate
XRPD Pattern ([1]; E, MeOH): API A + acid
XRPD Pattern ([1]; Grind, ACN): API A + acid

Propionate
XRPD Pattern ([1]; E, MeOH): API A
XRPD Pattern ([1]; Grind, ACN): API A

Pyroglutamate
XRPD Pattern ([1]; Grind, MEK): API A + pks

Stearate
XRPD Pattern ([1]; E, MeOH): API A + acid
XRPD Pattern ([1]; Grind, ACN): API A + acid

Tartrate
XRPD Pattern ([1]; Grind, IPA): API A + acid + NC
